Assay results published in ChEMBL document CHEMBL1158384, “Design, synthesis, and biological evaluation of 1,5-benzothiazepine-4-one derivatives targeting factor VIIa/tissue factor” (Bioorg Med Chem Lett, 2009).

Experiments:
[1] = target: Coagulation factor VII/tissue factor (Homo sapiens, UniProt P08709); experiment: Inhibition of human tissue factor/factor 7a; type: protein-complex assay
Prothrombin = Prothrombin (Homo sapiens, UniProt P00734); experiment: Inhibition of human factor 2a by spectrophotometry
Coagulation factor X = Coagulation factor X (Homo sapiens, UniProt P00742); experiment: Inhibition of human factor 10a by spectrometry
Sequence of Coagulation factor X (P00742 41-179 limits assumed): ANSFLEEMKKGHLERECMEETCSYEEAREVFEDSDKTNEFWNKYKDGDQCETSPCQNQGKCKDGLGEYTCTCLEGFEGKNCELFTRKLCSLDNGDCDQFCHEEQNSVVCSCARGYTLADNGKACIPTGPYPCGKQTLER
Sequence of Coagulation factor X (P00742 235-488 limits assumed): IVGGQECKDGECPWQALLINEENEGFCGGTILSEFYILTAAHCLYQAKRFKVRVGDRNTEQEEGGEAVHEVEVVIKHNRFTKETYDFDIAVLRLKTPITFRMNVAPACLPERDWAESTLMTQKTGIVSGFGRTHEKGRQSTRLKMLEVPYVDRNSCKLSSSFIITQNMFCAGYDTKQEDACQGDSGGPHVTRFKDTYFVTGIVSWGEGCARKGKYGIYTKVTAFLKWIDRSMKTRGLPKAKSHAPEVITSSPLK

Sequence of Coagulation factor VII/tissue factor (P08709 61-212 limits assumed): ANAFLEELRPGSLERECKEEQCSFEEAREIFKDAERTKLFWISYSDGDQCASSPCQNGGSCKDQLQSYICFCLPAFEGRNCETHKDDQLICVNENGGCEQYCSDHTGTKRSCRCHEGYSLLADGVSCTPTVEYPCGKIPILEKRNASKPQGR
Sequence of Coagulation factor VII/tissue factor (P08709 213-466 limits assumed): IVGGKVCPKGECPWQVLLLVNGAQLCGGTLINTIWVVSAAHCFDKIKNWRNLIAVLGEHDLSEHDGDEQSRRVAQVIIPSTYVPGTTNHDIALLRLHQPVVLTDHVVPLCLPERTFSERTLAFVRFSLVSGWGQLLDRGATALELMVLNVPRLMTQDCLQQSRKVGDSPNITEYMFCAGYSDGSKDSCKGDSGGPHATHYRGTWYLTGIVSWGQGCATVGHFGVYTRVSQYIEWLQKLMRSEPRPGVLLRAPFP
Sequence of Coagulation factor VII/tissue factor (P13726 33-295 partner limits assumed): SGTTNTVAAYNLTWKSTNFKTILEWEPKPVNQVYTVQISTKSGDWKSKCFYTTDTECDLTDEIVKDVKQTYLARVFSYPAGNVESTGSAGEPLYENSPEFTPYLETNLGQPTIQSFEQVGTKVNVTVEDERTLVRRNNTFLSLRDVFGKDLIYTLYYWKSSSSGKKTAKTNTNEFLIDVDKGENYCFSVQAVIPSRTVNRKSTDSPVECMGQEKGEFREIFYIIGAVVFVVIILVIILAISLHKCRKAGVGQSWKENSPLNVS

Row | SMILES | IC50 [1] | IC50 (Prothrombin) | IC50 (Coagulation factor X)
1 | N=C(N)c1ccc(CNC(=O)CN2C(=O)[C@H](NS(=O)(=O)Cc3ccccc3)CSc3cc(CCC(=O)O)ccc32)cc1 | 13.1 µM |  | 
2 | N=C(N)c1ccc(CNC(=O)CN2C(=O)[C@H](NS(=O)(=O)Cc3ccccc3)CSc3cc(CC(=O)O)ccc32)cc1 | 14.3 µM |  | 
3 | N=C(N)c1ccc(CNC(=O)CN2C(=O)[C@H](NS(=O)(=O)Cc3ccccc3)CSc3ccc(-c4cccc(N)c4)cc32)cc1 | 6.86 µM | 10 µM | 3.23 µM
4 | N=C(N)c1ccc(CNC(=O)CN2C(=O)[C@H](NS(=O)(=O)Cc3ccccc3)CSc3ccc(CC(=O)O)cc32)cc1 | 2.98 µM | 33 µM | 0.21 µM
5 | N=C(N)c1ccc(CNC(=O)CN2C(=O)[C@@H](NC(=O)CCC(=O)O)CSc3ccccc32)cc1 | 27.7 µM | > 300 µM | 
6 | N=C(N)c1ccc(CNC(=O)CN2C(=O)[C@H](NS(=O)(=O)Cc3ccccc3)CSc3ccc(C(=O)O)cc32)cc1 | 4.67 µM |  | 
7 | N=C(N)c1ccc(CNC(=O)CN2C(=O)C(NC(=O)CCC(=O)O)CSc3ccccc32)cc1 (single isomer, unassigned) | 81 µM | 300 µM | 
8 | Cc1nc(N)ccc1CNC(=O)CN1C(=O)[C@H](NS(=O)(=O)Cc2ccccc2)CSc2ccccc21 | > 33 µM |  | 
9 | N=C(N)c1ccc(CNC(=O)CN2C(=O)[C@H](NS(=O)(=O)Cc3ccccc3)CSc3cc(N)ccc32)cc1 | 4.86 µM | 7.05 µM | 1.63 µM
10 | N=C(N)c1ccc(CNC(=O)CN2C(=O)[C@H](NS(=O)(=O)Cc3ccccc3)CSc3ccc(-c4ccccc4)cc32)cc1 | 10.9 µM |  | 
11 | CC(=O)N[C@H]1CSc2ccccc2N(CC(=O)NCc2ccc(C(=N)N)cc2)C1=O | 37.3 µM | 100 µM | 
12 | Cc1nc(N)ccc1CNC(=O)CN1C(=O)[C@H](NCC(=O)O)CSc2ccccc21 | > 33 µM |  | 
13 | N=C(N)c1ccc(CNC(=O)CN2C(=O)[C@H](NS(=O)(=O)Cc3ccccc3)CSc3ccc(CN)cc32)cc1 | 1.86 µM | 10 µM | 1.72 µM
14 | N=C(N)c1ccc(CNC(=O)CN2C(=O)[C@H](NS(=O)(=O)Cc3ccccc3)CSc3ccc(N)cc32)cc1 | 2.3 µM | 1.89 µM | 1.52 µM
15 | N=C(N)c1ccc(CNC(=O)CN2C(=O)[C@@H](N)CSc3ccccc32)cc1 | 24.4 µM | 87 µM | 
16 | Cc1nc(N)ccc1CNC(=O)CCN1C(=O)[C@H](NS(=O)(=O)Cc2ccccc2)CSc2ccccc21 | > 33 µM |  | 
17 | Cc1nc(N)ccc1CNC(=O)CN1C(=O)[C@H](N)CSc2ccccc21 | > 300 µM | 88 µM | 
18 | CC(=O)N[C@@H]1CSc2ccccc2N(CCC(=O)NCc2ccc(C(=N)N)cc2)C1=O | 233 µM |  | 
19 | CC(=O)N[C@H]1CSc2ccccc2N(CCC(=O)NCc2ccc(C(=N)N)cc2)C1=O | 168 µM |  | 
20 | N=C(N)c1ccc(CNC(=O)CCN2C(=O)[C@H](NCC(=O)O)CSc3ccccc32)cc1 | 95 µM |  | 

Row | SMILES | IC50 [1] | IC50 (Prothrombin) | IC50 (Coagulation factor X)
21 | N=C(N)c1ccc(CNC(=O)CN2C(=O)[C@H](NCC(=O)O)CSc3ccccc32)cc1 | 15.9 µM |  | 
22 | N=C(N)c1ccc(CNC(=O)CN2C(=O)[C@H](NS(=O)(=O)Cc3ccccc3)CSc3ccc(CC(N)C(=O)O)cc32)cc1 (stereo partly drawn) | 1.5 µM | 33 µM | 1.05 µM
23 | N=C(N)c1ccc(CNC(=O)CN2C(=O)[C@H](NS(=O)(=O)Cc3ccccc3)CSc3ccc(-c4cccc([N+](=O)[O-])c4)cc32)cc1 | 5.96 µM | 0.79 µM | 2.81 µM
24 | CC(=O)N[C@@H]1CSc2ccccc2N(CC(=O)NCc2ccc(C(=N)N)cc2)C1=O | 90 µM |  | 
25 | Cc1nc(N)ccc1CNC(=O)CN1C(=O)[C@@H](N)CSc2ccccc21 | > 300 µM | 88 µM | 
26 | N=C(N)c1ccc(CNC(=O)CCN2C(=O)[C@@H](NS(=O)(=O)Cc3ccccc3)CSc3ccccc32)cc1 | 19.7 µM |  | 
27 | N=C(N)c1ccc(CNC(=O)CN2C(=O)[C@@H](NS(=O)(=O)Cc3ccccc3)CSc3ccccc32)cc1 | 27.9 µM | 48 µM | 
28 | N=C(N)c1ccc(CNC(=O)CCN2C(=O)[C@@H](NC(=O)CCC(=O)O)CSc3ccccc32)cc1 | 166 µM | > 33 µM | 
29 | CC(=O)N[C@@H]1CSc2ccccc2N(CC(=O)NCc2ccc(N)nc2C)C1=O | > 300 µM | 133 µM | 
30 | N=C(N)c1ccc(CNC(=O)CN2C(=O)[C@H](NS(=O)(=O)Cc3ccccc3)CSc3cc(CN)ccc32)cc1 | 5.6 µM | 10 µM | 0.8 µM
31 | N=C(N)c1ccc(CNC(=O)CN2C(=O)C(NS(=O)(=O)Cc3ccccc3)CSc3ccccc32)cc1 (single isomer, unassigned) | 2.16 µM | 0.37 µM | 3.28 µM
32 | N=C(N)c1ccc(CNC(=O)CN2C(=O)[C@H](NS(=O)(=O)Cc3ccccc3)CSc3ccc(CCN)cc32)cc1 | 1.32 µM | 6.23 µM | 2.79 µM
33 | N=C(N)c1ccc(CNC(=O)CCN2C(=O)[C@H](NS(=O)(=O)Cc3ccccc3)CSc3ccccc32)cc1 | 63 µM |  | 
34 | CC(=O)N[C@H]1CSc2ccccc2N(CC(=O)NCc2ccc(N)nc2C)C1=O | > 300 µM | 130 µM | 
35 | N=C(N)c1ccc(CNC(=O)CN2C(=O)[C@H](NS(=O)(=O)Cc3ccccc3)CSc3ccc(CCC(=O)O)cc32)cc1 | 2.64 µM | 33 µM | 2.03 µM
36 | N=C(N)c1ccc(CNC(=O)CN2C(=O)[C@H](NS(=O)(=O)Cc3ccccc3)CSc3cc(C(=O)O)ccc32)cc1 | > 33 µM |  | 
37 | N=C(N)c1ccc(CNC(=O)CCN2C(=O)[C@H](NC(=O)CCC(=O)O)CSc3ccccc32)cc1 | 61 µM |  | 
38 | N=C(N)c1ccc(CNC(=O)CN2C(=O)[C@H](NC(=O)C(c3ccccc3)c3ccccc3)CSc3ccccc32)cc1 | > 33 µM |  | 
39 | N=C(N)c1ccc(CNC(=O)CCN2C(=O)[C@@H](NCC(=O)O)CSc3ccccc32)cc1 | > 330 µM | 33 µM | 
40 | Cc1nc(N)ccc1CNC(=O)CCN1C(=O)[C@H](NCC(=O)O)CSc2ccccc21 | > 33 µM |  | 
